Consider one compound from PubChem BioAssay AID1671245.

The target of the assay is Casein kinase I isoform epsilon (Homo sapiens) (UniProt P49674). In words: CSNK1E kinase inhibitors, dose response, biochemical, Z'-LYTE, FRET, direct format (AID 1671245). Particulars: Z'-LYTE FRET kinase activity assay, recombinant CSNK1E.

SMILES strings stand for the structures.

One may read the IC50 as the concentration at which inhibition is half-maximal.

Sequence of Casein kinase I isoform epsilon (Homo sapiens) (P49674 whole entry, looked up, canonical isoform): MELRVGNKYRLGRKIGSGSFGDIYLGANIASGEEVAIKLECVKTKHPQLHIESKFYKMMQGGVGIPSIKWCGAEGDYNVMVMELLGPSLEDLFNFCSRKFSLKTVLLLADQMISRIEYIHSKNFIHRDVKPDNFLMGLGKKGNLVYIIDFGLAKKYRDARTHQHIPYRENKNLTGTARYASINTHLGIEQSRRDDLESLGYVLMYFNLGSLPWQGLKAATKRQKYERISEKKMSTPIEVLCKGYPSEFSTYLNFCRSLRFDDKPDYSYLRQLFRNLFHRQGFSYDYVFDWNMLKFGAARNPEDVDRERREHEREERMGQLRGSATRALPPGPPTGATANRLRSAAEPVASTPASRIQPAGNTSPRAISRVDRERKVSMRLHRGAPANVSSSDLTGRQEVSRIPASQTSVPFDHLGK

For the compound `Brc1c(Br)c(Br)c2n[nH]nc2c1Br`, the half-maximal inhibitory concentration (IC50) was 4.83 µM.
